Assay results taken from patent US20230226212A1, “MUSCLE-TARGETING COMPLEXES AND USES THEREOF” (Dyne Therapeutics, Inc., priority 2020, published 2023).
Read-outs that look alike come from different tables or passages of the source.

Columns and labels:
DMPK [1] = experiment: DMPK knockdown by unconjugated PMOs in primary human myotubes (Example 23); type: cell-based; details: unconjugated PMO; 3 days; qPCR
Procedure: Additional DMPK targeting oligonucleotides (PMOs) were designed and tested for their activity in reducing DMPK expression in primary human myotubes. Wild-type primary myoblasts were cultured in PromoCell Skeletal Muscle growth medium with 5% FBS and penicillin/streptomycin until nearly confluent. Cells were then seeded into a 96 well plate at 50000 cells per well and allowed to recover for 24 hours. Cells were then differentiated in a differentiation medium of DMEM with glutamine and penicillin/streptomycin for 7 days. Cells were then treated with the unconjugated PMO for 3 days. Total RNA was collected from cells, cDNA was synthesized and DMPK expression was measured by qPCR.

creatine kinase = creatine kinase activity levels in mdx mice (Example 14); type: in vivo, mouse; details: single i.v. dose 30 mg/kg, two and four weeks after injection
Procedure: (§1) Each experimental condition was replicated in five mdx mice. Five wild-type mice (healthy mice) were also dosed with vehicle control (saline).
All mice in this Example were further tested for creatine kinase activity levels two weeks and four weeks after injection.

mdx mice [2] = experiment: cage running wheel test in mdx mice (Example 14); type: in vivo, mouse; details: single i.v. dose 30 mg/kg, four weeks after injection, 24-hour period
Procedure: as §1
Four weeks after injection, the activity of all treated mice was determined using a cage running wheel test. Each mouse was individually placed into cages with a running wheel for a 24-hour period. The 24-hour period involved five hours of light on followed by thirteen hours of darkness, and ending with six hours of light. The total distance traveled (in meters, m) by each mouse on the running wheel was continuously collected throughout the 24-hour period and subsequently binned into discrete one-hour increments.

mdx mice [3] = experiment: open field chamber with hind limb fatigue challenge in mdx mice (Example 14); type: in vivo, mouse; details: single i.v. dose 30 mg/kg, two weeks after injection, hind limb fatigue challenge between stages
Procedure: as §1
Two weeks after injection, the functional activity of all treated mice was determined using an open field chamber experiment. The experiment involved three consecutive stages: (1) a 10-minute period during which each mouse was placed into an open field chamber; (2) a 10-minute period during which each mouse was subjected to a hind limb fatigue challenge; and (3) a 10-minute period during which each mouse was placed into an open field chamber. The total horizontal distances traveled during stages (1) and (3) were collected. The percent change in the total distance traveled between the first and second tests.

DMPK [4] = experiment: DMPK expression in NHP myotubes (Example 15); type: cell-based; details: dose-responsive
Excerpt: (§2) The antisense oligonucleotides were further assessed to identify oligos that are safe in vivo (e.g., as indicated by low immunogenicity as measured by cytokine induction), and further based on manufacturability and secondary structure considerations. Three antisense oligonucleotides, […] (SEQ ID NO: 329, DMPK-ASO-1), […] (SEQ ID NO: 330, DMPK-ASO-2), and […] (SEQ ID NO: 331, DMPK-ASO-3) were selected. These oligonucleotides were then further evaluated for their ability to reduce DMPK expression in DM1 myotubes and NHP myotubes in a dose-responsive manner. The tool compound control DMPK-ASO was used as control.

DMPK [5] = experiment: DMPK transcript knockdown by oligonucleotides in RD cells (Example 21); type: cell-based; details: free or transfected oligonucleotide, 3 days, relative to PBS-treated cells
Procedure: DMPK-targeting oligonucleotides (e.g., ASO) were tested in rhabdomyosarcoma (RD) cells for knockdown of DMPK transcript expression. RD cells were cultured in a growth medium of DMEM with glutamine, supplemented with 10% FBS and penicillin/streptomycin until nearly confluent. Cells were then seeded into a 96 well plate at 20 K cells per well and were allowed to recover for 24 hours. Cells were then treated with free DMPK-targeting oligonucleotides or by transfection of the oligonucleotides using 0.3 µL per well of Lipofectamine MessengerMAX transfection reagent. After 3 days, total RNA was collected from cells, cDNA was synthesized and DMPK expression was measured by qPCR.

DMPK [6] = experiment: DMPK expression in DM1 myotubes (Example 15); type: cell-based; details: dose-responsive
Excerpt: as §2

DUX4 [7] = experiment: expression of downstream DUX4 genes in U-2 OS cells (Example 12); type: cell-based, human; details: 72 hours
Procedure: Human U-2 OS cells were dosed with the complex. Briefly, U-2 OS cells were seeded at a density of 10 k cells/well before being allowed to recover overnight. […] Cells were incubated for 72 hours before being harvested for total RNA. cDNA was then synthesized from the total RNA extracts and qPCR was performed to determine expression of downstream DUX4 genes (ZSCAN4, MBD3L2, TRIM43) in technical quadruplicate. All qPCR data were analyzed using a standard ΔΔCT method and were normalized to a plate-based negative control comprised of untreated cells (i.e., without any oligonucleotide). Results were then converted to fold change to evaluate efficacy.

DUX4 [8] = experiment: expression of DUX4-associated genes in FSHD patient-derived myotubes (Example 26); type: cell-based
Procedure: FSHD patient-derived myotubes were treated with FM-10 conjugated to an anti-TfRl Fab or naked FM-10. FM-10 has the sequence 5′-[…]-3′ (SEQ ID NO: 260). Expression of mRNA transcribed from three genes known to be only expressed following DUX4 activation was subsequently measured in the myotubes. Expression of these three DUX4-associated genes was reduced, as shown in FIG. 41A (naked oligonucleotide) and 41B (Ab-oligonucleotide).

[9] = target: human transferrin receptor 1 (human) (UniProt P02786); experiment: Carterra LSA biosensor, IgG captured on anti-IgG lawn, hTfR1 injected, 25C, 1:1 fit
Chain of human transferrin receptor 1 (human) (P02786 89-760 limits assumed): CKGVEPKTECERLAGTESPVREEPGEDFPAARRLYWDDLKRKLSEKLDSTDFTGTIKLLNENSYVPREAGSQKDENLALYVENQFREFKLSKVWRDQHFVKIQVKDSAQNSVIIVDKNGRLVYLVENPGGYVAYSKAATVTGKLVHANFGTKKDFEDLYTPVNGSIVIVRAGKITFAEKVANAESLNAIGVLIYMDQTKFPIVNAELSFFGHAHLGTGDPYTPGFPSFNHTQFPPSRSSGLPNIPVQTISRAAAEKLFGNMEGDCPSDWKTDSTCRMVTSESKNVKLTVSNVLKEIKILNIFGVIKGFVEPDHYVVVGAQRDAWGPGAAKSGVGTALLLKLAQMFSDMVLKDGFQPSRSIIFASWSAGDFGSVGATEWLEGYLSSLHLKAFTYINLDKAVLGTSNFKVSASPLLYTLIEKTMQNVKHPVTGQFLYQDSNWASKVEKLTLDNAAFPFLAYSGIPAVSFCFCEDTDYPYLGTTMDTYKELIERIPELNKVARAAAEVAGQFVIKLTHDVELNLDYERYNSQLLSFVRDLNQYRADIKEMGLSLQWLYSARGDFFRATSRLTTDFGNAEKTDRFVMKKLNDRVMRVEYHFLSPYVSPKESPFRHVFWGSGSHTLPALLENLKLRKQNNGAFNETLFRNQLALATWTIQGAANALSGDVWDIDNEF

TCCACCCTGACTCCAGGTGAC (SEQ ID NO: 310) (all phosphorodiamidate morpholino (PMO)) [PMO 2, DMPK-targeting PMO, intron 1-2]
% DMPK Knockdown in Primary Human Myotubes (DMPK [1]): 16%

TAGGCACTCACCCACTGCAAGA (SEQ ID NO: 324) (all phosphorodiamidate morpholino (PMO)) [PMO 39, DMPK-targeting PMO, Exon 1]
% DMPK Knockdown in Primary Human Myotubes (DMPK [1]): 69%

CCTTCTCTCTGCCTCTCAGCTT (SEQ ID NO: 312) (all phosphorodiamidate morpholino (PMO)) [PMO 4, DMPK-targeting PMO, intron 1-2]
% DMPK Knockdown in Primary Human Myotubes (DMPK [1]): 58%

TAGGGACCTGCGGAGAGGGCGA (SEQ ID NO: 320) (all phosphorodiamidate morpholino (PMO)) [PMO 12, DMPK-targeting PMO, Exon 15]
% DMPK Knockdown in Primary Human Myotubes (DMPK [1]): 35%

AGGGCAGTGCTTACCTGAGGG (SEQ ID NO: 326) (all phosphorodiamidate morpholino (PMO)) [PMO 41, DMPK-targeting PMO, Intron 9-10]
% DMPK Knockdown in Primary Human Myotubes (DMPK [1]): 57%

ATGACCAGGTACTGAGAAGGG (SEQ ID NO: 318) (all phosphorodiamidate morpholino (PMO)) [PMO 10, DMPK-targeting PMO, Exon 5]
% DMPK Knockdown in Primary Human Myotubes (DMPK [1]): 33%

GGCCAAACCUCGGCUUACCUGAAAU (SEQ ID NO: 261) (PMO chemistry, chemistry not fully specified) [MDX-ASO, naked exon 23 skipping PMO ASO]
creatine kinase activity (creatine kinase): no significant benefit | distance traveled on running wheel during the dark period (mdx mice [2]): traveled considerably shorter distances | average less distance traveled during stage (3) relative to stage (1), open field (mdx mice [3]): about 85%

GCGUAGAAGGGCGUCUGCCC (SEQ ID NO: 329) (chemistry not given here) [DMPK-ASO-1, DMPK-targeting antisense oligonucleotide]
reduction of DMPK expression in NHP myotubes (DMPK [4]): dose-dependently reducing DMPK | DMPK expression level (DMPK [5]): reduced | reduction of DMPK expression in DM1 myotubes (DMPK [6]): dose-dependently reducing DMPK

GGGCATTTTAATATATCTCTGAACT (SEQ ID NO: 260) (PMO chemistry, chemistry not fully specified) [naked FM10, phosphorodiamidate morpholino oligomer (PMO) targeting DUX4]
ZSCAN4, MBD3L2, and TRIM43 expression (DUX4 [7]; 1 µM): fails to reduce | MDB3L2 expression (DUX4 [7]; 10 µM): no effect | ZSCAN4 and TRIM43 expression (DUX4 [7]; 10 µM): modest reduction | expression of three DUX4-associated genes (DUX4 [8]): reduced | IC50 (DUX4 [8]; MBD3L2 transcript, read-out: IC50 (nM), MBD3L2): 1210 nM | IC50 (DUX4 [8]; TRIM43 transcript, read-out: IC50 (nM), TRIM43): 1120 nM | IC50 (DUX4 [8]; ZSCAN4 transcript, read-out: IC50 (nM), ZSCAN4): 643 nM

ACGATGGGCTCCGCTGGG (SEQ ID NO: 316) (all phosphorodiamidate morpholino (PMO)) [PMO 8, DMPK-targeting PMO, Exon 2]
% DMPK Knockdown in Primary Human Myotubes (DMPK [1]): 60%

GCCTAGGGACCTGCGGGAGAG (SEQ ID NO: 321) (all phosphorodiamidate morpholino (PMO)) [PMO 13, DMPK-targeting PMO, Exon 15]
% DMPK Knockdown in Primary Human Myotubes (DMPK [1]): 62%

GCCTTTTATTCGCGAGGGTCGG (SEQ ID NO: 322) (all phosphorodiamidate morpholino (PMO)) [PMO 14, DMPK-targeting PMO, polyA]
% DMPK Knockdown in Primary Human Myotubes (DMPK [1]): 73%

TCCGCTGGGTGGTGGGAAAAGAA (SEQ ID NO: 314) (all phosphorodiamidate morpholino (PMO)) [PMO 6, DMPK-targeting PMO, Exon 2]
% DMPK Knockdown in Primary Human Myotubes (DMPK [1]): 9%

AGGTACTGAGAAGGGTTCGTC (SEQ ID NO: 319) (all phosphorodiamidate morpholino (PMO)) [PMO 11, DMPK-targeting PMO, Exon 5]
% DMPK Knockdown in Primary Human Myotubes (DMPK [1]): 40%

CCAUCUCGGCCGGAAUCCGC (SEQ ID NO: 331) (chemistry not given here) [DMPK-ASO-3, DMPK-targeting antisense oligonucleotide]
reduction of DMPK expression in NHP myotubes (DMPK [4]): dose-dependently reducing DMPK | DMPK expression level (DMPK [5]): reduced | reduction of DMPK expression in DM1 myotubes (DMPK [6]): dose-dependently reducing DMPK

anti-TfR1 antibody OKT9 (mouse IgG, control)
Kd [9]: 0.536 nM | kon [9]: 774000 M⁻¹ s⁻¹

CGGAGCTCACCAGGTAGTTCT (SEQ ID NO: 325) (all phosphorodiamidate morpholino (PMO)) [PMO 40, DMPK-targeting PMO, Intron 4-5]
% DMPK Knockdown in Primary Human Myotubes (DMPK [1]): 73%

CCATCCTTGGGCAGAGACCT (SEQ ID NO: 317) (all phosphorodiamidate morpholino (PMO)) [PMO 9, DMPK-targeting PMO, Intron 4-5]
% DMPK Knockdown in Primary Human Myotubes (DMPK [1]): 41%

TGGAGGGCCTTTTATTCGCGAGG (SEQ ID NO: 323) (all phosphorodiamidate morpholino (PMO)) [PMO 15, DMPK-targeting PMO, polyA]
% DMPK Knockdown in Primary Human Myotubes (DMPK [1]): 66%

CCCAGCGCCCACCAGUCACA (SEQ ID NO: 330) (chemistry not given here) [DMPK-ASO-2, DMPK-targeting antisense oligonucleotide]
reduction of DMPK expression in NHP myotubes (DMPK [4]): dose-dependently reducing DMPK | DMPK expression level (DMPK [5]): reduced | reduction of DMPK expression in DM1 myotubes (DMPK [6]): dose-dependently reducing DMPK

ATGGGCTCCGCTGGGTGGTGG (SEQ ID NO: 315) (all phosphorodiamidate morpholino (PMO)) [PMO 7, DMPK-targeting PMO, Exon 2]
% DMPK Knockdown in Primary Human Myotubes (DMPK [1]): 11%

CAGGTGACAGTTCAGGTGCAG (SEQ ID NO: 309) (all phosphorodiamidate morpholino (PMO)) [PMO 1, DMPK-targeting PMO, intron 1-2]
% DMPK Knockdown in Primary Human Myotubes (DMPK [1]): 59%

CCACCCTCTGTCTGTCTCC (SEQ ID NO: 313) (all phosphorodiamidate morpholino (PMO)) [PMO 5, DMPK-targeting PMO, intron 1-2]
% DMPK Knockdown in Primary Human Myotubes (DMPK [1]): 64%

GAGAAGGAAATAAGACCCAGTT (SEQ ID NO: 311) (all phosphorodiamidate morpholino (PMO)) [PMO 3, DMPK-targeting PMO, intron 1-2]
% DMPK Knockdown in Primary Human Myotubes (DMPK [1]): 14%
